Holding throughout (format): cell-based
Assay [1] relates to BHY cells (human oral squamous cell carcinoma cells). Kind of assay: Proliferation assay (alamarBlue) with BHY cells. Set-up: key: fluorescence relative to mean of DMSO control wells = 1.0. The following applies: for Activity Range (weighted arithmetic mean AVEw of normalized fluorescence intensity, relative to DMSO basis level 1.0): 20 μM; for Activity Range (weighted arithmetic mean of normalized fluorescence intensity, relative to DMSO basis level 1.0): control at 40 μM. The source says: (§1) The antiproliferative activities of compounds falling under formula (Ia), (Ib) and (Ic), respectively, were investigated on cells or cell lines originating from a disorder of the haematopoietic system, including the myeloid cell compartment and the lymphoid cell compartment (T-cells and B-cells), the neuroendocrine system, the cervix, the breast, the ovaries, the lung, the gastrointestinal tract, and the mucosal epithelium, as well as from the skin epithelium and from the muscle. To this end, HL-60 cells, NB-4 cells, HH cells, RPMI-8402 cells, TANOUE cells, TT cells, HeLa cells, MDA-MB-231 cells, FU-OV-1 cells, LOU-NH91 cells, 23132/87 cells, CAL-27 cells, BHY cells, SCC-25 cells, A-431 cells, human primary epidermal keratinocytes (HPEK), and C2C12 cells were seeded into 96-well plates suitable for fluorescence assays (CORNING #3598) at following initial cell numbers: 1000 cells per well for HL-60; 1000 cells per well for NB-4; 5000 cells per well for HH; 5000 cells per well for RPMI-8402; 1500 cells per well for TANOUE; 9000 cells per well for TT; 2000 cells per well for HeLa; 3000 cells per well for MDA-MB-231; 3000 cells per well for FU-OV-1; 4000 cells per well for LOU-NH91; 2000 cells per well for 23132/87; 2000 cells per well for CAL-27; 1500 cells per well for BHY; 1500 cells per well for SCC-25; 700 cells per well for A-431; 1000 cells per well for HPEK; 500 cells per well for C2C12. The cells were treated with compounds at indicated final concentrations (diluted from the 1000× stock-solutions in DMSO to a final DMSO concentration of 0.1% v/v in H2O (Water For Injection, WFI, Fisherscientific #10378939)) or with the empty carrier DMSO at 0.1% v/v as control for 5 days. At day 5 after starting the treatments the cells were subjected to the alamarBlue® Proliferation Assay (Bio-Rad Serotec GmbH, BUF012B) according to the protocol of the manufacturer. The readout was taken with a multi-well plate-reader in the fluorescence mode with applying a filter for excitation at 560 nm (band width 10 nm) and for emission at 590 nm (band width 10 nm). Control treatments for growth inhibition with commercial compounds such as Methotrexate (MTREX) and Resveratrol (RES) were included on every plate. Some of the test compounds of the present invention were obtained and applied as their salts. According cases are indicated in the column “Specification” in Table 55 to Table 92 and by their sum formula in Table 93.
(§2) The assays were performed in duplicate or more replicates of independent single experiments each containing a six-fold replicate for every condition. For every individual plate, the measured fluorescence intensity values of the conditions with compound treatment were normalized against the corresponding equally weighted arithmetic mean of the fluorescence intensity values of the six DMSO treated control wells in order to obtain the relative values to a baseline level of 1.0.
(§3) Two independent outlier analyses were performed according to the methods by Peirce and Chauvenet (Ross, Journal of Engineering Technology 2003, 1-12). Outliers confirmed by at least one of the methods were excluded from the calculations but not more than one value out of six per compound within a single experiment. The weighted arithmetic mean (here abbreviated as AVEw) for each compound was calculated from the normalized values over all independent replicates of the single experiments comprising the six replicates each. The corresponding standard deviation for the weighted arithmetic mean was calculated according to the method described by Bronstein et al. (Bronstein, Semendjajew, Musiol, Müihlig, Taschenbuch der Mathematik, 5th edition 2001 (German), publisher: Verlag Harri Deutsch, Frankfurt am Main and Thun) and was combined with the Gauß' error propagation associated with the performed calculation for the normalization. The resulting standard deviation is herein referred to as “combined standard deviation”. […]

Assay [2] deals with HeLa cells (human cervical adenocarcinoma cells). Kind of assay: Proliferation assay (alamarBlue) with HeLa cells.
Text: as §1, §2, §3

Assay [3] has as its system FU-OV-1 cells (human ovarian carcinoma cells). Kind of assay: Proliferation assay (alamarBlue) with FU-OV-1 cells.
Text: as §1, §2, §3

The test system of assay [4] is MDA-MB-231 cells (human breast carcinoma cells). Kind of assay: Proliferation assay (alamarBlue) with MDA-MB-231 cells. The following applies: compound at 20 μM; for activity at 20 µM: Homo sapiens, Table 69 (novel compounds), read-out: Activity Range: weighted arithmetic mean (AVEw) of normalized fluorescence intensity relative to DMSO basis level 1.0; for Activity Range: weighted arithmetic mean (AVEw) of normalized fluorescence intensity relative to DMSO basis level 1.0: Table 70 (compounds of PCT/EP2018/054686).
Text: as §1, §2, §3

Assay [5] has as its system SCC-25 cells (human tongue squamous cell carcinoma cells). Kind of assay: Proliferation assay (alamarBlue) with SCC-25 cells. The following applies: for Activity Range (weighted arithmetic mean AVEw of normalized fluorescence intensity, relative to DMSO basis level 1.0): 20 μM; for Activity Range (weighted arithmetic mean of normalized fluorescence intensity, relative to DMSO basis level 1.0): control at 40 μM.
Text: as §1, §2, §3

Where [6] appears, read: Table 80 (compounds disclosed in PCT/EP2018/054686).
Where [7] appears, read: Table 81 (compounds disclosed in PCT/EP2018/054686).
[8] abbreviates: compound at 20 μM, Table 67 (novel compounds).
[9] abbreviates: compound at 20 μM, Table 68 (compounds of PCT/EP2018/054686).
Where [10] appears, read: compound at 20 μM, Table 71 (novel compounds).
Where [11] appears, read: compound at 20 μM, Table 72 (compounds of PCT/EP2018/054686).
Where [12] appears, read: Table 83 (compounds disclosed in PCT/EP2018/054686).

These results are taken from patent US20220354949A1, “NOVEL COMPOUNDS” (XENIOPRO GmbH, priority 2018, published 2022).

In the case of `CN(Cc1cnc2nc(N)nc(N)c2n1)c1ccc(C(=O)N[C@@H](CCC(=O)O)C(=O)O)cc1` [MTREX, Methotrexate], the “Activity Range (weighted arithmetic mean AVEw of normalized fluorescence intensity, relative to DMSO basis level 1.0)” value came to 0.3 ± 0.0 in assay [1] (Table 79 (novel compounds)); 0.3 ± 0.0 in assay [1] (setting [6]); 0.3 ± 0.0 in assay [1] (setting [7]); 0.5 ± 0.1 in assay [5] (Table 82 (novel compounds)); 0.5 ± 0.1 in assay [5] (setting [12]). Further, the “Activity Range: weighted arithmetic mean (AVEw) of normalized fluorescence intensity relative to DMSO basis level 1.0” value is listed as 0.4 ± 0.0 in assay [2] (setting [8]); 0.4 ± 0.0 in assay [2] (setting [9]); 1.0 ± 0.0 in assay [3] (setting [10]); 1.0 ± 0.0 in assay [3] (setting [11]); 0.6 ± 0.0 in assay [4]. Also, the activity at 20 µM in assay [4] was determined as 60%.

With `Oc1ccc(C=Cc2cc(O)cc(O)c2)cc1` [RES, Resveratrol], the “Activity Range (weighted arithmetic mean AVEw of normalized fluorescence intensity, relative to DMSO basis level 1.0)” value in assay [1] (setting [6]) is 0.5 ± 0.1; in assay [1] (setting [7]), 0.5 ± 0.1; in assay [5] (Table 82 (novel compounds)), 0.4 ± 0.1; in assay [5] (setting [12]), 0.4 ± 0.1. The “Activity Range (weighted arithmetic mean of normalized fluorescence intensity, relative to DMSO basis level 1.0)” value in assay [1] (Table 79) was determined as 0.3 ± 0.0; in assay [1] (Table 80), 0.3 ± 0.0; in assay [1] (Table 81) it was 0.3 ± 0.0; in assay [5] (Table 82), 0.1 ± 0.0; in assay [5] (Table 83) it was 0.1 ± 0.0. The “Activity Range: weighted arithmetic mean (AVEw) of normalized fluorescence intensity relative to DMSO basis level 1.0” value in assay [2] (setting [8]) worked out at 0.9 ± 0.0; in assay [2] (setting [9]), 0.9 ± 0.0; in assay [2] (control at 40 μM, Table 67), 0.4 ± 0.1; in assay [2] (control at 40 μM, Table 68), 0.4 ± 0.1; in assay [3] (setting [10]), 0.7 ± 0.0; in assay [3] (setting [11]), 0.7 ± 0.0. Also, the “Activity Range: weighted arithmetic mean (AVEw) of normalized fluorescence intensity relative to DMSO basis level 1.0” value came out at 0.4 ± 0.0 in assay [3] (control at 40 μM, Table 71); 0.4 ± 0.0 in assay [3] (control at 40 μM, Table 72); 0.6 ± 0.0 in assay [4]. In assay [4], the activity at 20 µM was 60%.
